Target: 5-HT2A receptor (Homo sapiens (Human), UniProt P28223)
Assay: Radioligand binding assay ([3H]5-HT competition), 5-HT2A
Details: [3H]5-HT radioligand, membranes of HEK293 cells expressing recombinant 5-HT2A; Ki from IC50 by Cheng-Prusoff; read-out: 5-HT2A serotonin binding Ki value
Procedure: Competition binding experiments consisted of addition of 5 μL of serially diluted test compound, 50 μL of radioligand stock diluted in Assay Buffer (20 mM HEPES, pH 7.4, 10 mM MgCl2), and 145 μL of diluted membrane expressing the receptor of interest to 96-well microtiter plates, which were then incubated for one hour at room temperature. Assay incubations were terminated by rapid filtration through Perkin Elmer GF/C filtration plates under vacuum pressure using a 96-well Packard filtration apparatus, followed by washing the filter plates several times with ice cold Assay Buffer. Plates were then dried at 45° C. for a minimum of four hours. Finally, 25 μL of BetaScint scintillation cocktail was added to each well and the plates were counted in a Packard TopCount scintillation counter. In each competition study, test compounds were assayed at 10 concentrations with three replicates at each test concentration. Dose-response curves were constructed to determine IC50 values and these were converted to corresponding Ki values using the Cheng-Prusoff equation.

Sequence of 5-HT2A receptor (P28223 whole entry): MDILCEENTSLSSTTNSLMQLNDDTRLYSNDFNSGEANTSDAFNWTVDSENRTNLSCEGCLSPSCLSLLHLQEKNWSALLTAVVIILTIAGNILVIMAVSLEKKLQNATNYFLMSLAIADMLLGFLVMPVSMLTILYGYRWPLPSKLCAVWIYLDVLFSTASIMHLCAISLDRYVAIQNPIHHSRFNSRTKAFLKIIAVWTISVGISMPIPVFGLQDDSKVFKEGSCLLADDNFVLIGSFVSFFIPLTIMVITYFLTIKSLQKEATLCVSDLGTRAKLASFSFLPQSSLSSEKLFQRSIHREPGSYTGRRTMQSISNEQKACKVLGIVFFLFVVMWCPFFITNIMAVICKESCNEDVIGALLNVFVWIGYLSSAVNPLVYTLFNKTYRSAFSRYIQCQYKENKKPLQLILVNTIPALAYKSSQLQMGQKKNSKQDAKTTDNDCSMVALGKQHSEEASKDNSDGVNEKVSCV

Compound | Ki [nM]
Cc1noc(C)c1-c1cc(NC(=O)C2CC2)ccc1OCCN1C[C@H]2C[C@H]2C1 [Compound 164, N-[4-[2-[(1R,5S)-3-azabicyclo[3.1.0]hexan-3-yl]ethoxy]-3-(3,5-dimethylisoxazol-4-yl)phenyl]cyclopropanecarboxamide] | 13.8
CCCN(C)CCOc1ccc(NC(=O)C2CC2)cc1-c1c(C)noc1C [Compound 150, N-(3-(3,5-dimethylisoxazol-4-yl)-4-(2-(methyl(propyl)amino)ethoxy)phenyl)cyclopropanecarboxamide] | 13.5
Cc1noc(C)c1-c1cc(NC(=O)C2CC2C2CC2)ccc1OCCN1CCCC1 (stereo not shown) [Compound 100, N-(3-(3,5-dimethylisoxazol-4-yl)-4-(2-(pyrrolidin-1-yl)ethoxy)phenyl)-[1,1′-bi(cyclopropane)]-2-carboxamide] | 2.89
Cc1noc(C)c1-c1cc(NC(=O)c2ncoc2C)ccc1OC[C@H]1CCCCN1 [Compound 185, (R)—N-(3-(3,5-dimethylisoxazol-4-yl)-4-(piperidin-2-ylmethoxy)phenyl)-5-methyloxazole-4-carboxamide] | 8.77
Cc1ncsc1C(=O)Nc1ccc(OCCN2CCCC2)c(-c2c(C)noc2C)c1 [Compound 109, N-(3-(3,5-dimethylisoxazol-4-yl)-4-(2-(pyrrolidin-1-yl)ethoxy)phenyl)-4-methylthiazole-5-carboxamide] | 3.78
Cc1noc(C)c1-c1cc(NC(=O)c2c(F)cnn2C)ccc1OCCN1CCOCC1 [Compound 134, N-[3-(3,5-dimethylisoxazol-4-yl)-4-(2-morpholinoethoxy)phenyl]-4-fluoro-2-methyl-pyrazole-3-carboxamide] | 5.86
Cc1noc(C)c1-c1cc(NC(=O)c2ccccc2)ccc1OCCN1CCC1 [Compound 120, N-(4-(2-(azetidin-1-yl)ethoxy)-3-(3,5-dimethylisoxazol-4-yl)phenyl)benzamide] | 9.41
Cc1noc(C)c1-c1cc(NC(=O)C2CC23CCOCC3)ccc1OC[C@H]1CCCCN1 (stereo partly drawn) [Compound 203, N-(3-(3,5-dimethylisoxazol-4-yl)-4-(((R)-piperidin-2-yl)methoxy)phenyl)-6-oxaspiro[2.5]octane-1-carboxamide] | 27.8
Cc1noc(C)c1-c1cc(NC(=O)C2CC2)ccc1O[C@@H]1CCCNC1 [Compound 179, (R)—N-(3-(3,5-dimethylisoxazol-4-yl)-4-(piperidin-3-yloxy)phenyl)cyclopropanecarboxamide] | 85.9
Cc1ncoc1C(=O)Nc1ccc(OCCN2CCCC2)c(-c2c(C)noc2C)c1 [Compound 112, N-(3-(3,5-dimethylisoxazol-4-yl)-4-(2-(pyrrolidin-1-yl)ethoxy)phenyl)-4-methyloxazole-5-carboxamide] | 14.1
Cc1noc(C)c1-c1cc(NC(=O)C2CC2)ccc1OCCN1[C@@H]2COC[C@H]1C2 [Compound 159, N-[3-(3,5-dimethylisoxazol-4-yl)-4-[2-[(1R,5S)-3-oxa-6-azabicyclo[3.1.1]heptan-6-yl]ethoxy]phenyl]cyclopropanecarboxamide] | 1.61
Cc1nc(C(=O)Nc2ccc(OC[C@H]3CCCCN3)c(-c3c(C)noc3C)c2)c(C)s1 [Compound 210, (R)—N-(3-(3,5-dimethylisoxazol-4-yl)-4-(piperidin-2-ylmethoxy)phenyl)-2,5-dimethylthiazole-4-carboxamide] | 86.3
Cc1cnn(C)c1C(=O)Nc1ccc(OC[C@H]2CCCCN2)c(-c2c(C)noc2C)c1 [Compound 208, (R)—N-(3-(3,5-dimethylisoxazol-4-yl)-4-(piperidin-2-ylmethoxy)phenyl)-1,4-dimethyl-1H-pyrazole-5-carboxamide] | 9.66
CCN(C)CCOc1ccc(NC(=O)C2CC2)cc1-c1c(C)noc1C [Compound 149, N-(3-(3,5-dimethylisoxazol-4-yl)-4-(2-(ethyl(methyl)amino)ethoxy)phenyl)cyclopropanecarboxamide] | 13.9
Cc1cnoc1C(=O)Nc1ccc(OCCN2CCCC2)c(-c2c(C)noc2C)c1 [Compound 111, N-(3-(3,5-dimethylisoxazol-4-yl)-4-(2-(pyrrolidin-1-yl)ethoxy)phenyl)-4-methylisoxazole-5-carboxamide] | 23.8
Cc1noc(C)c1-c1cc(NC(=O)C2CC2)ccc1OCCN1CCN2C(=O)CCC2C1 (stereo not shown) [Compound 138, N-(3-(3,5-dimethylisoxazol-4-yl)-4-(2-(6-oxohexahydropyrrolo[1,2-a]pyrazin-2(1H)-yl)ethoxy)phenyl)cyclopropanecarboxamide] | 24.6
Cc1noc(C)c1-c1cc(NC(=O)Cc2ccc(F)cn2)ccc1OC[C@H]1CCCCN1 [Compound 227, (R)—N-(3-(3,5-dimethylisoxazol-4-yl)-4-(piperidin-2-ylmethoxy)phenyl)-2-(5-fluoropyridin-2-yl)acetamide] | 91.6

Compound | Ki [nM]
COC1CCN(CCOc2ccc(NC(=O)C3CC3)cc2-c2c(C)noc2C)CC1 [Compound 143, N-(3-(3,5-dimethylisoxazol-4-yl)-4-(2-(4-methoxypiperidin-1-yl)ethoxy)phenyl)cyclopropanecarboxamide] | 84
Cc1noc(C)c1-c1cc(NC(=O)C2CC2)ccc1O[C@H]1CCCNC1 [Compound 178, N-[3-(3,5-dimethylisoxazol-4-yl)-4-[[(3S)-3-piperidyl]oxy]phenyl]cyclopropanecarboxamide] | 718
Cc1noc(C)c1-c1cc(NC(=O)C2CC2)ccc1OCCN1CCCC1 [Compound 167, N-[3-(3,5-dimethylisoxazol-4-yl)-4-(2-pyrrolidin-1-ylethoxy)phenyl]cyclopropanecarboxamide] | 7.71
Cc1noc(C)c1-c1cc(NC(=O)C2CC2)ccc1OC[C@@H]1COCCN1 [Compound 171, (S)—N-(3-(3,5-dimethylisoxazol-4-yl)-4-(morpholin-3-ylmethoxy)phenyl)cyclopropanecarboxamide] | 184
Cc1noc(C)c1-c1cc(NC(=O)C2CC2)ccc1OC[C@H]1COCCN1 [Compound 173, (R)—N-(3-(3,5-dimethylisoxazol-4-yl)-4-(morpholin-3-ylmethoxy)phenyl)cyclopropanecarboxamide] | 96.9
Cc1noc(C)c1-c1cc(NC(=O)C(F)c2ccccc2)ccc1OC[C@H]1CCCCN1 (stereo partly drawn) [Compound 206, N-(3-(3,5-dimethylisoxazol-4-yl)-4-(((R)-piperidin-2-yl)methoxy)phenyl)-2-fluoro-2-phenylacetamide] | 3.4
Cc1noc(C)c1-c1cc(NC(=O)C2CC2)ccc1OCCN1CCC2(CC1)CC(=O)N2 [Compound 140, N-(3-(3,5-dimethylisoxazol-4-yl)-4-(2-(2-oxo-1,7-diazaspiro[3.5]nonan-7-yl)ethoxy)phenyl)cyclopropanecarboxamide] | 228
Cc1noc(C)c1-c1cc(NC(=O)C(C)(C)F)ccc1OC[C@H]1CCCCN1 [Compound 199, N-[3-(3,5-dimethylisoxazol-4-yl)-4-[[(2R)-2-piperidyl]methoxy]phenyl]-2-fluoro-2-methyl-propanamide] | 35.6
Cc1noc(C)c1-c1cc(NC(=O)c2ccncc2)ccc1OCCN1CCCC1 [Compound 102, N-(3-(3,5-dimethylisoxazol-4-yl)-4-(2-(pyrrolidin-1-yl)ethoxy)phenyl)isonicotinamide] | 119
Cc1noc(C)c1-c1cc(NC(=O)C2(F)CC2)ccc1OCCN1C[C@@H]2C[C@H]1CO2 [Compound 162, N-[3-(3,5-dimethylisoxazol-4-yl)-4-[2-[(1S,4S)-2-oxa-5-azabicyclo[2.2.1]heptan-5-yl]ethoxy]phenyl]-1-fluoro-cyclopropanecarboxamide] | 4.7
N-(4-(2-(azetidin-1-yl)ethoxy)-3-(3,5-dimethylisoxazol-4-yl)phenyl)-2-(5-fluoropyridin-2-yl)acetamide [Compound 129] | 182
Cc1noc(C)c1-c1cc(NC(=O)C[C@@H]2CCOC2)ccc1OC[C@H]1CCCCN1 [Compound 201, N-(3-(3,5-dimethylisoxazol-4-yl)-4-(((R)-piperidin-2-yl)methoxy)phenyl)-2-((S)-tetrahydrofuran-3-yl)acetamide] | 11.9
Cc1noc(C)c1-c1cc(NC(=O)C2CC2)ccc1OCCN1CCN(C)C(=O)C1 [Compound 156, N-[3-(3,5-dimethylisoxazol-4-yl)-4-[2-(4-methyl-3-oxo-piperazin-1-yl)ethoxy]phenyl]cyclopropanecarboxamide] | 145
Cc1noc(C)c1-c1cc(NC(=O)c2cnsc2)ccc1OC[C@H]1CCCCN1 [Compound 186, (R)—N-(3-(3,5-dimethylisoxazol-4-yl)-4-(piperidin-2-ylmethoxy)phenyl)isothiazole-4-carboxamide] | 7.71
Cc1noc(C)c1-c1cc(NC(=O)C2CC2)ccc1OCCN1CC[C@H](O)C1 [Compound 147, (S)—N-(3-(3,5-dimethylisoxazol-4-yl)-4-(2-(3-hydroxypyrrolidin-1-yl)ethoxy)phenyl)cyclopropanecarboxamide] | 25.2
Cc1noc(C)c1-c1cc(NC(=O)c2c(F)cnn2C)ccc1OCCN1CCC1 [Compound 130, N-(4-(2-(azetidin-1-yl)ethoxy)-3-(3,5-dimethylisoxazol-4-yl)phenyl)-4-fluoro-1-methyl-1H-pyrazole-5-carboxamide] | 12.8
Cc1noc(C)c1-c1cc(NC(=O)c2ccnn2C)ccc1OCCN1C[C@@H]2C[C@H]1CO2 [Compound 163, N-[3-(3,5-dimethylisoxazol-4-yl)-4-[2-[(1S,4S)-2-oxa-5-azabicyclo[2.2.1]heptan-5-yl]ethoxy]phenyl]-2-methyl-pyrazole-3-carboxamide] | 6.73

From patent US20240376090A1, “ISOXAZOLE DERIVATIVES AS MODULATORS OF THE 5-HT2A SEROTONIN RECEPTOR USEFUL FOR THE TREATMENT OF DISORDERED RELATED THERETO” (Arena Pharmaceuticals, Inc., priority 2020, published 2024)
